Assay results: ChEMBL document CHEMBL3244067, “Synthesis and biological activity of carboxyl-terminus modified prostaglandin analogues” (J Med Chem, 1979)
One block for each molecule: values may come before it.

How the values were obtained:
Rattus norvegicus [1] = experiment: Antisecretory activity in rat assessed as inhibition of pentagastrin-stimulated gastric acid secretion at 10 ug/kg, iv relative to PGE2; format: functional, Stomach
Mus musculus = experiment: Induction of diarrheal activity in conscious mouse at 0.1 to 3 mg/kg, iv administered for 30 mins relative to PGE2; format: organism-based; design: dose 0.1-3 mg/kg, route intravenous; conditions: in vivo, 0.5 h
Canis familiaris = experiment: Hypotensive activity in iv dosed PGE2-treated Mongrel dog assessed as change in blood pressure of greater than 10 mm by mercury manometer relative to PGE2; format: functional, Canis lupus familiaris
Cavia porcellus = experiment: Bronchodilator activity in Reed-Willet guinea pig assessed as inhibition of histamine-induced bronchoconstriction at 0.28 mM administered through nebulizer for 1 min relative to PGE2; format: functional
[2] = Spasmogenic activity in nulliparous guinea pig uterine relative to PGE2; format: functional, Cavia porcellus, Uterus
Rattus norvegicus [3] = experiment: Antisecretory activity in rat assessed as inhibition of pentagastrin-stimulated gastric acid secretion at 50 ug/kg, iv relative to PGE2; format: functional, Stomach
[4] = Dissociation constant, pKa of the compound; format: physicochemical

SMILES: CCCCC(C)(C)[C@H](O)/C=C/[C@H]1[C@H](O)CC(=O)[C@@H]1C/C=C\CCCC(=O)O
fold change (FC) (Rattus norvegicus [1]): 360
fold change (FC) (Mus musculus): 5300
fold change (FC) (Canis familiaris): 10
fold change (FC) (Cavia porcellus): 41
fold change (FC) [2]: 33

SMILES: CCCCC[C@H](O)/C=C/[C@H]1[C@H](O)CC(=O)[C@@H]1C/C=C\CCCc1nnn[nH]1
fold change (FC) (Mus musculus): 50
fold change (FC) (Canis familiaris): 10
fold change (FC) (Rattus norvegicus [3]): 35
fold change (FC) (Cavia porcellus): 65
fold change (FC) [2]: 100

SMILES: CCCCC[C@H](O)/C=C/[C@H]1[C@H](O)CC(=O)[C@@H]1C/C=C\CCCC(=O)NC(=O)c1ccccc1
fold change (FC) (Mus musculus): 83
fold change (FC) (Canis familiaris): 10
fold change (FC) (Rattus norvegicus [3]): 40
fold change (FC) (Cavia porcellus): 87
fold change (FC) [2]: 67

SMILES: CCCCC[C@H](O)/C=C/[C@H]1[C@H](O)CC(=O)[C@@H]1C/C=C\CCNC(=O)NC(C)=O
fold change (FC) (Mus musculus): < 5
fold change (FC) (Canis familiaris): <0.5
fold change (FC) (Rattus norvegicus [3]): 0
fold change (FC) (Cavia porcellus): 25
fold change (FC) [2]: <0.1

SMILES: CCCCC[C@H](O)/C=C/[C@H]1[C@H](O)CC(=O)[C@@H]1C/C=C\CCCC(=O)NC(=O)NCC
fold change (FC) (Mus musculus): 27
fold change (FC) (Canis familiaris): 0.5
fold change (FC) (Rattus norvegicus [3]): 0
fold change (FC) (Cavia porcellus): 28
fold change (FC) [2]: 0.2

SMILES: CCCCC[C@H](O)/C=C/[C@H]1[C@H](O)CC(=O)[C@@H]1C/C=C\CCCC(=O)NS(=O)(=O)c1ccccc1
fold change (FC) (Mus musculus): 33
fold change (FC) (Canis familiaris): <0.5
fold change (FC) (Rattus norvegicus [3]): 20
fold change (FC) (Cavia porcellus): 28
fold change (FC) [2]: 3.1

SMILES: CCCCC[C@H](O)/C=C/[C@H]1[C@H](O)CC(=O)[C@@H]1C/C=C\CCCC(N)=O
fold change (FC) (Mus musculus): 10
fold change (FC) (Canis familiaris): 10
fold change (FC) (Rattus norvegicus [3]): 0
fold change (FC) (Cavia porcellus): 28
fold change (FC) [2]: 0.6

SMILES: CCCCC(C)(C)[C@H](O)/C=C/[C@H]1[C@H](O)CC(=O)[C@@H]1C/C=C\CCCc1nnn[nH]1
fold change (FC) (Rattus norvegicus [1]): 130
fold change (FC) (Mus musculus): 2550
fold change (FC) (Canis familiaris): 10
fold change (FC) (Cavia porcellus): 76
fold change (FC) [2]: 120

SMILES: CCCCC(C)(C)[C@H](O)/C=C/[C@H]1[C@H](O)CC(=O)[C@@H]1C/C=C\CCCC(=O)NC(C)=O
fold change (FC) (Rattus norvegicus [1]): 330
fold change (FC) (Mus musculus): 1250
fold change (FC) (Canis familiaris): 2.5
fold change (FC) (Cavia porcellus): 24
fold change (FC) [2]: 100

SMILES: CCCCC(C)(C)[C@H](O)/C=C/[C@H]1[C@H](O)CC(=O)[C@@H]1C/C=C\CCCC(=O)NS(C)(=O)=O
fold change (FC) (Rattus norvegicus [1]): 220
fold change (FC) (Mus musculus): 1350
fold change (FC) (Canis familiaris): <0.5
fold change (FC) (Cavia porcellus): 28
fold change (FC) [2]: 25

SMILES: c1ccc([P+](CCCCc2nnn[nH]2)(c2ccccc2)c2ccccc2)cc1
pKa [4]: 4.93

SMILES: CC(=O)NC(=O)CCCC[P+](c1ccccc1)(c1ccccc1)c1ccccc1
pKa [4]: 12.9

SMILES: O=C(CCCC[P+](c1ccccc1)(c1ccccc1)c1ccccc1)NC(=O)c1ccccc1
pKa [4]: 12.9

SMILES: CS(=O)(=O)NC(=O)CCCC[P+](c1ccccc1)(c1ccccc1)c1ccccc1
pKa [4]: 5.25

SMILES: O=C(CCCC[P+](c1ccccc1)(c1ccccc1)c1ccccc1)NS(=O)(=O)c1ccccc1
pKa [4]: 5.12

SMILES: NC(=O)CCCC[P+](c1ccccc1)(c1ccccc1)c1ccccc1
pKa [4]: 15.1

SMILES: O=C(O)CCCC[P+](c1ccccc1)(c1ccccc1)c1ccccc1
pKa [4]: 5.19

Second part, led by results:

fold change (FC) (Mus musculus): 100
SMILES: CCCCC[C@H](O)/C=C/[C@H]1[C@H](O)CC(=O)[C@@H]1C/C=C\CCCC(=O)NC(C)=O
fold change (FC) (Canis familiaris): 25
fold change (FC) (Rattus norvegicus [3]): 160
fold change (FC) (Cavia porcellus): 63
fold change (FC) [2]: 65

fold change (FC) (Mus musculus): 10
SMILES: CCCCC[C@H](O)/C=C/[C@H]1[C@H](O)CC(=O)[C@@H]1C/C=C\CCCC(=O)NS(C)(=O)=O
fold change (FC) (Canis familiaris): 1
fold change (FC) (Rattus norvegicus [3]): 12
fold change (FC) (Cavia porcellus): 47
fold change (FC) [2]: 7

fold change (FC) (Mus musculus): < 5
SMILES: CCCCC[C@H](O)/C=C/[C@@H]1[C@@H](C/C=C\CCCc2nnn[nH]2)[C@@H](O)C[C@H]1O
fold change (FC) (Canis familiaris): 2.5
fold change (FC) [2]: 0.8

fold change (FC) (Mus musculus): 78
SMILES: CCCCC[C@H](O)/C=C/[C@@H]1[C@@H](C/C=C\CCCC(=O)NC(C)=O)[C@@H](O)C[C@H]1O
fold change (FC) (Canis familiaris): <0.5
fold change (FC) [2]: 30

fold change (FC) (Mus musculus): < 5
SMILES: CCCCC[C@H](O)/C=C/[C@@H]1[C@@H](C/C=C\CCCC(=O)NC(=O)c2ccccc2)[C@@H](O)C[C@H]1O
fold change (FC) (Canis familiaris): 0.5
fold change (FC) [2]: 0.9

fold change (FC) (Mus musculus): < 5
SMILES: CCCCC[C@H](O)/C=C/[C@@H]1[C@@H](C/C=C\CCNC(=O)NC(C)=O)[C@@H](O)C[C@H]1O
fold change (FC) (Canis familiaris): <0.5
fold change (FC) [2]: <0.1

fold change (FC) (Mus musculus): < 10
SMILES: CCCCC[C@H](O)/C=C/[C@@H]1[C@@H](C/C=C\CCCC(=O)NC(=O)NCC)[C@@H](O)C[C@H]1O
fold change (FC) (Canis familiaris): <0.5
fold change (FC) [2]: <0.1

fold change (FC) (Mus musculus): 25
SMILES: CCCCC[C@H](O)/C=C/[C@@H]1[C@@H](C/C=C\CCCC(=O)NS(C)(=O)=O)[C@@H](O)C[C@H]1O
fold change (FC) (Canis familiaris): <0.5
fold change (FC) [2]: <0.1

fold change (FC) (Mus musculus): < 10
SMILES: CCCCC[C@H](O)/C=C/[C@@H]1[C@@H](C/C=C\CCCC(=O)NS(=O)(=O)c2ccccc2)[C@@H](O)C[C@H]1O
fold change (FC) (Canis familiaris): <0.5
fold change (FC) [2]: <0.1

fold change (FC) (Mus musculus): < 5
SMILES: CCCCC[C@H](O)/C=C/[C@@H]1[C@@H](C/C=C\CCCC(N)=O)[C@@H](O)C[C@H]1O
fold change (FC) (Canis familiaris): 2.5
fold change (FC) [2]: <0.1

fold change (FC) (Mus musculus): 6.5
SMILES: CCCCC[C@H](O)/C=C/[C@@H]1[C@@H](C/C=C\CCCC(=O)O)[C@@H](O)C[C@H]1O [DINOPROST]
fold change (FC) (Canis familiaris): 10
fold change (FC) [2]: 10
